Read-outs that look alike come from different tables or passages of the source.
Experiments:
pCREB = assay: Hippocampal slice cultures, immunohistochemistry of synaptic marker pCREB; assay type: cell-based, Wistar rats; details: relative activation vs sister cultures treated with buffer; 15 min treatment after 48 h in culture; also: key: ++++ shows a qualitative maximal activation; -- shows a reduced activation; ++ signifies a half-maximum activation; ± demonstrated no change in immunoreactivity
Procedure: (§1) Seven-day-old Wistar rats were decapitated using a guillotine. […] Transversal hippocampal slices (400 µm) were prepared using a vibrating blade microtome (VT1200S; Leica Microsystems (Schweiz) AG, Heerbrugg, Switzerland) in the same buffer. Hippocampal slices were individually placed on a membrane insert (Millicell Culture Plate Inserts, 0.4 µm) and cultivated at 35 °C, 5% CO2, 95% humidity in a medium containing a 1:1 mixture of BME and MEM (both from Invitrogen) containing 25% heat-inactivated horse serum, 1x GlutaMAX, 1x Penicillin/Streptomycin, 0.6% glucose and 1mM Kynurenic acid (Stoppini, Buchs and Muller (1991), J. Neurosci. Methods, 37(2), 173-82). After 48 h in culture, synaptic NMDA receptors were activated by addition of black pepper extract or its constituents for 15 min in 140 mM NaCl, 5 mM KCl, 1.3 mM CaCl2, 25 mM HEPES (pH 7.3), 33 mM D-glucose and 0.02 mM bicuculline methiodide. […] After the treatments, sections were washed and fixed for immunohistochemistry. Markers of enhanced synaptic activity, normally associated with long-term potentiation, representing an ex vivo model of learning and memory were quantitated (see Table 2, below). Table 2. […] The activation of any of these markers (or a combination thereof) is observed in classical LTP experiments. TABLE 2 […]

pMAPK = assay: Hippocampal slice cultures, immunohistochemistry of synaptic marker pMAPK; assay type: cell-based, Wistar rats; details: relative activation vs sister cultures treated with buffer; 15 min treatment after 48 h in culture; also: key: ++++ shows a qualitative maximal activation; -- shows a reduced activation; ++ signifies a half-maximum activation; ± demonstrated no change in immunoreactivity
Procedure: as §1

[1] = molecular target: T1, human glycine transporter 1b cDNA (GlyT1) (Homo sapiens, UniProt P48067); assay: Inhibition of glycine transporter 1 in a cellular assay ([3H] glycine uptake into CHO cells); assay type: cell-based
T1 construct: expressed in transfected cells
T1 sequence (P48067 1-652 isoform P48067-3): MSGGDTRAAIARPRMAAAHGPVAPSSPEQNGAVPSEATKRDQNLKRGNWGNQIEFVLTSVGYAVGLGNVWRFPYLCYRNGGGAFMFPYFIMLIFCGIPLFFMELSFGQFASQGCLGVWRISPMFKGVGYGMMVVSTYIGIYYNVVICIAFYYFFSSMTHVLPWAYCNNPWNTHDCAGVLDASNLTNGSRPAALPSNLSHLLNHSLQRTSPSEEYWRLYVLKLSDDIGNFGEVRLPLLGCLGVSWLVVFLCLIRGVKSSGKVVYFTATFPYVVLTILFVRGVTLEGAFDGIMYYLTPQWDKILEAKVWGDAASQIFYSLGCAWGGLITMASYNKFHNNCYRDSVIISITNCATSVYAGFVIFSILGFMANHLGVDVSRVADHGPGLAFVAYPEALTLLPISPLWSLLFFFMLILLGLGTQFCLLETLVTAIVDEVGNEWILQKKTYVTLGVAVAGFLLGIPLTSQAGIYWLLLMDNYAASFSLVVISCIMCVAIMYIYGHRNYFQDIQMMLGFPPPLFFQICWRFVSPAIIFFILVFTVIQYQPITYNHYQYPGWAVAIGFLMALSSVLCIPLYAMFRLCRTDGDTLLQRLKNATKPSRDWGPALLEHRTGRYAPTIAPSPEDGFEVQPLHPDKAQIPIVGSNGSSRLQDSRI
Procedure: Cells were harvested by trypsinisation one day prior to the assay and were seeded in the above mentioned medium. Immediately prior to the assay, the medium was replaced by uptake buffer containing 150 mM NaCl, 1 mM CaCl2, 2.5 mM KCl, 2.5 mM MgCl2, 10 mM Glucose and 10 mM N-2-hydroxyethylpiperazine-N'-2-ethanesulfonic acid ("Hepes" buffer). […] Louis, USA) were used as known inhibitors of GlyT1. […] Data is shown as mean ± s.e.m., where the IC50 is stated as µM for pure compounds and as µg/mLfor extracts.

GluR1 = assay: Hippocampal slice cultures, immunohistochemistry of synaptic marker GluR1; assay type: cell-based, Wistar rats; details: relative activation vs sister cultures treated with buffer; 15 min treatment after 48 h in culture
Procedure: Seven-day-old Wistar rats were decapitated using a guillotine. […] Transversal hippocampal slices (400 µm) were prepared using a vibrating blade microtome (VT1200S; Leica Microsystems (Schweiz) AG, Heerbrugg, Switzerland) in the same buffer. Hippocampal slices were individually placed on a membrane insert (Millicell Culture Plate Inserts, 0.4 µm) and cultivated at 35 °C, 5% CO2, 95% humidity in a medium containing a 1:1 mixture of BME and MEM (both from Invitrogen) containing 25% heat-inactivated horse serum, 1x GlutaMAX, 1x Penicillin/Streptomycin, 0.6% glucose and 1mM Kynurenic acid (Stoppini, Buchs and Muller (1991), J. Neurosci. Methods, 37(2), 173-82). After 48 h in culture, synaptic NMDA receptors were activated by addition of black pepper extract or its constituents for 15 min in 140 mM NaCl, 5 mM KCl, 1.3 mM CaCl2, 25 mM HEPES (pH 7.3), 33 mM D-glucose and 0.02 mM bicuculline methiodide. […] After the treatments, sections were washed and fixed for immunohistochemistry. Markers of enhanced synaptic activity, normally associated with long-term potentiation, representing an ex vivo model of learning and memory were quantitated (see Table 2, below). Table 2. […] The activation of any of these markers (or a combination thereof) is observed in classical LTP experiments.

[2] = pure compounds, CHO cells expressing GlyT1, 60 nM [3H] glycine, 30 minutes at room temperature

IC50 ([1]; read-out: IC50 for tritiated glycine uptake, pure compounds, CHO cells expressing GlyT1, 60 nM [3H] glycine, 30 minutes at room temperature) | IC50 [1] | Compound | pCREB (pCREB) | pMAPK (pMAPK) | GluR1 (GluR1) | IC50 for tritiated glycine uptake [1, 2]
 |  | NCC(=O)O [Glycine, reference compound] | ++ | ++ |  | 
0.02 µM |  | CN(CC[C@@H](Oc1ccc(C(F)(F)F)cc1)c1ccccc1)CC(=O)O [ORG24598, reference compound] |  |  |  | 
 | 48.7 µM | O=C(/C=C/C=C/c1ccc2c(c1)OCO2)N1CCCCC1 [Piperine] | ± | ± | 119-1742% | 
 |  | COc1cc(/C=C/C(=O)N2CCC=CC2=O)cc(OC)c1OC [Piperlongumine] | ± | ± | 412-931% | inactive
 |  | CC(C)CNC(=O)/C=C/C=C/c1ccc2c(c1)OCO2 [Piperlonguminine] |  |  |  | inactive
 |  | CNCC(=O)O [Sarcosine, reference compound] | ± | ± |  | 
